Test results taken from paper PMC5446775, “Interactions of 172 plant extracts with human organic anion transporter 1 (SLC22A6) and 3 (SLC22A8): a study on herb-drug interactions” (PeerJ, 2017).
Values joined by “and” are separate entries in the source; they are usually repeats but may differ in a detail not shown here. Equal values may be shown once.

How the values were obtained:
[1] = Pharmacokinetics of furosemide in rats with and without Juncus effusus extract; type: in vivo; conditions: FS 10 mg/kg i.v. alone
hOAT3 = molecular target: T1, hOAT3 (Homo sapiens, UniProt Q8TCC7); experiment: Inhibition of 6-CF uptake in HEK-OAT3 cells (screening at 5 μg/ml and concentration-dependent inhibition); type: cell-based; parameters: Invitrogen (Flp-In system, cells); 6-CF uptake OAT3, Figure 2 raw data (single replicates) / OAT3-mediated 6-CF uptake (Inhibitory effects of butanol extracts on OAT-mediated 6-CF), raw replicate values / OAT3-mediated 6-CF uptake (Inhibitory effects of aqueous extracts on OAT-mediated 6-CF), raw replicate values: unit not given here
T1 sequence (Q8TCC7 1-542): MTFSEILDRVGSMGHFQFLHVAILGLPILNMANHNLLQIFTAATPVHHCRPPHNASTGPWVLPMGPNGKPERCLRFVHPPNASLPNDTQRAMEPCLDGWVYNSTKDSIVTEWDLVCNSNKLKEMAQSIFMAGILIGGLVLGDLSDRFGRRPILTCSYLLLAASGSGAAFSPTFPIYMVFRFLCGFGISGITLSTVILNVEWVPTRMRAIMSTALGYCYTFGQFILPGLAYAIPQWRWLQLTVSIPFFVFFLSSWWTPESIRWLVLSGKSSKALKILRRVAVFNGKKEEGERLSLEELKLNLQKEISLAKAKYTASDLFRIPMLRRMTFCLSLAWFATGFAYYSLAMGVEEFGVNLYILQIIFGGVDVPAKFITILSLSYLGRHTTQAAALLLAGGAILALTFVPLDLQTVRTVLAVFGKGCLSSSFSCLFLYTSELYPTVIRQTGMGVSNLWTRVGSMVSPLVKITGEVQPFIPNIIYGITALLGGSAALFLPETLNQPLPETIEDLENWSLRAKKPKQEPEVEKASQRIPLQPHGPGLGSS
Experimental: The stock solutions of plant extracts were prepared using DMSO with a final concentration of 1 mg/ml. The initial concentration for each extract was set at 5 μg∕ml. Every well contained the same concentration of DMSO (0.5%) to eliminate the potential effect of solvent. […] Before the initial screening, the reproducibility of uptake experiments was evaluated. […] Due to the large number of samples, for the initial screening study, each uptake experimental sample was measured in triplicates in the same assay.
After the uptake was terminated at 4 min and 10 min for OAT1 and OAT3 respectively, intracellular fluorescence was determined as above.

Row | Clobs of FS [1] | V z_obs of FS [1] | 6-CF fluorescence of cells (fluorescence images) (hOAT3; HEK-OAT3, co-incubation with probenecid 30 μM) | OAT3-mediated 6-CF uptake (Inhibitory effects of aqueous extracts on OAT-mediated 6-CF), raw replicate values (hOAT3; aqueous extracts, screening at 5 μg/ml, HEK-OAT3 cells, three replicate columns, Control about 100, Prob = positive control) | OAT3-mediated 6-CF uptake (Inhibitory effects of butanol extracts on OAT-mediated 6-CF), raw replicate values (hOAT3; butanol extracts, screening at 5 μg/ml, HEK-OAT3 cells, three replicate columns, Control about 100, Prob = positive control) | 6-CF uptake OAT3, Figure 2 raw data (single replicates) (hOAT3; probenecid 30 μM positive control, 6-CF 4 μM, 10 min, HEK-OAT3) | SMILES
1 | 1.0 ± 1.0 L/min/kg × 10^−3 | 146.9 ± 12.1 L/kg ×10^−3 |  |  |  |  | NS(=O)(=O)c1cc(C(=O)O)c(NCc2ccco2)cc1Cl [FS, furosemide]
2 |  |  | almost completely abolished | 2.375 and 2.144 and 0.9311 | 2.375 and 2.144 and 0.9311 | 2.375 and 2.144 and 0.9311 | CCCN(CCC)S(=O)(=O)c1ccc(C(=O)O)cc1 [probenecid, Probenecid]
